This is an account of results in ChEMBL document CHEMBL1201862, “PubChem BioAssay data set” (2004).

Calls of active or inactive are those of the source. A value given as a limit tells only on which side of the number the result lay.

Experiment [1] concerns the target G-protein coupled receptor 55 (Homo sapiens, UniProt Q9Y2T6). The experiment in a line: inhibition of LPI-stimulated GPR55 beta-arrestin translocation – imaging, U2OS, beta-arrestin-GFP, LPI agonist, primary screen (AID 2013).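 Note: antagonist potency measured as reduced agonist-driven arrestin aggregation.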 It counts as functional.
A further experiment relates to Escherichia coli. The experiment in a line: microbe, parasite or virus in culture.
Experiment [2] concerns the target T1, Ubiquitin-conjugating enzyme E2 N (Homo sapiens, UniProt P61088).
T1 sequence (P61088 whole entry): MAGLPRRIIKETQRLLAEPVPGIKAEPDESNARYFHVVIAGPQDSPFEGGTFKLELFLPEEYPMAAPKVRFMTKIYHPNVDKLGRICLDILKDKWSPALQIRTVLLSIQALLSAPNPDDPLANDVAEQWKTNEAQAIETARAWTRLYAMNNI
It counts as functional.

For experiment [3], the target named is T1, Ubiquitin-conjugating enzyme E2 N. It counts as functional. The source holds these as a separate data set.
The target of a further experiment is T2, Bcl-2-related protein A1 (Mus musculus, UniProt Q07440).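 Note: confirmatory dose–response counterscreen on Bfl-1, used to check hits from a UBC13 polyubiquitin inhibitor campaign.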
T2 sequence (Q07440 whole entry): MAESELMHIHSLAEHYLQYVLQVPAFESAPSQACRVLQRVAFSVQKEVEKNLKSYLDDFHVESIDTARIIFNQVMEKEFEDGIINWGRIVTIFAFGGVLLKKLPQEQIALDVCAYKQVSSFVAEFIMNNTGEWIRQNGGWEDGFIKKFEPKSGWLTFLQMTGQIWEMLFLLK
It counts as functional.

The nature of experiment [4]: Luminescence Cell-Based Dose Retest to Confirm Inhibitors of Cancer Stem Cells. [Related pubchem assays (depositor defined):AID2717, AID2721]. Conditions: Homo sapiens. Format: functional.
A short description of experiment [5]: viability loss in CEM21 cells – cell-based, CellTiter-Glo luminescence, cherry-picked, cytotoxicity control for viral fusion inhibitor project, dose response (AID 652042).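 Note: potency for signal decrease meaning cytotoxicity.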 Format: functional.
The nature of experiment [6]: blockers of HIV-1 ZM109 envelope-driven cell-cell fusion – HeLa effector, CEM target cells, luciferase, cherry-pick, dose response (AID 652058).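 Note: luciferase signal from HIV-1 Env mediated cell-cell fusion of effector and target cells.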 It counts as functional, cell-based.
Experiment [7] is described as follows: blockers of HIV-1 envelope-mediated cell-cell fusion – cherry-pick, dose response (AID 652057). Format: functional, cell-based.
Experiment [8] addresses T3, Oxysterols receptor LXR-beta (Homo sapiens, UniProt P55055).
T3 sequence (P55055 whole entry): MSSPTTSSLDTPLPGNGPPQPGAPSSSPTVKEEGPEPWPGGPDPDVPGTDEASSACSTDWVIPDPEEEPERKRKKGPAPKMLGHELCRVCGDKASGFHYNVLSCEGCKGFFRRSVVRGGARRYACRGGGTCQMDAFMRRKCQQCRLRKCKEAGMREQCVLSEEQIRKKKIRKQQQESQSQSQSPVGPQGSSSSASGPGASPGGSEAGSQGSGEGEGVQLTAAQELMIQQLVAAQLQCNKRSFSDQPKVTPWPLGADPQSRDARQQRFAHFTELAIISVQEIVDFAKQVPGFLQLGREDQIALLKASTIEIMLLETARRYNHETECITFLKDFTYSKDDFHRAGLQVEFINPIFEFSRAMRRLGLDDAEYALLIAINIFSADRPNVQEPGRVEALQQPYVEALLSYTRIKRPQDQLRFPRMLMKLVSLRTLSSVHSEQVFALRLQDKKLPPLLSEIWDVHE
Format: functional, cell-based.

The target in experiment [9] is T4, High affinity choline transporter 1 (Homo sapiens, UniProt Q9GZV3).
T4 sequence (Q9GZV3 whole entry): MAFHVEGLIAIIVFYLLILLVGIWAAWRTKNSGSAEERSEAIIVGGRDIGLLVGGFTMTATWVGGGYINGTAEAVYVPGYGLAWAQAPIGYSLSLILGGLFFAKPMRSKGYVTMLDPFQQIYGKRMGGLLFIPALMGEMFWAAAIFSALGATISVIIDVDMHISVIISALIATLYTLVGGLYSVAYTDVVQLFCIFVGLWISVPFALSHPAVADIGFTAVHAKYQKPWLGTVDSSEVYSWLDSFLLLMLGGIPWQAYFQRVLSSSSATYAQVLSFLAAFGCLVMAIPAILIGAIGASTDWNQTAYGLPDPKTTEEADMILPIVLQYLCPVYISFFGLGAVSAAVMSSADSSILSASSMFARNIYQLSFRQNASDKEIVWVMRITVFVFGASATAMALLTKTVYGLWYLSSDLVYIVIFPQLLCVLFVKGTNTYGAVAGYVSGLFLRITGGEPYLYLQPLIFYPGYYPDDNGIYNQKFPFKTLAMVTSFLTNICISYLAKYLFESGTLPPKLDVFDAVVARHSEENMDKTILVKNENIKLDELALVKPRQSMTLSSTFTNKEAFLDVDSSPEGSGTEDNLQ
The experiment in a line: human choline transporter blockers, potency – cell-based, 5-point CRC, membrane potential dye, dose response (AID 504840). Format: functional.

The nature of experiment [10]: HIV-1 AD8 envelope cell-cell fusion blockers – cherry-pick, dose response (AID 652062).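 Note: luciferase signal from cell-cell fusion driven by HIV-1 clade B AD8 Env; potency is for inhibitors of fusion seen as a drop in luminescence.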 It counts as functional, cell-based.
Experiment [11] in a line: off-target signal loss in HeLa-CEM21 co-culture – HeLa F-luc CTL cells, cherry-picked, counter-screen for HIV-1 Env fusion inhibitor project, dose response (AID 652040).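 Note: potency for signal decrease marking cytotoxic or nonspecific inhibition.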 It counts as functional, cell-based. For orientation: The purpose of a counterscreen is to sort out artefacts and off-target activity.
Experiment [12] in a line: viability loss of HPDE-C7K cells – cell-based, fluorescence, HTS, primary screen (AID 431). The conditions noted are these: Homo sapiens. It counts as functional.
Experiment [13] is described as follows: cells. It counts as functional, cell-based.
Experiment [14] in a line: HPDE-C7 pancreatic duct cell viability loss – fluorescence, HTS (AID 430). Format: functional, cell-based. The conditions noted are these: Homo sapiens.
Experiment [15] can be described thus: cells. Format: functional, cell-based. This is another data set of the same source.

Sequence of G-protein coupled receptor 55 (Q9Y2T6 whole entry): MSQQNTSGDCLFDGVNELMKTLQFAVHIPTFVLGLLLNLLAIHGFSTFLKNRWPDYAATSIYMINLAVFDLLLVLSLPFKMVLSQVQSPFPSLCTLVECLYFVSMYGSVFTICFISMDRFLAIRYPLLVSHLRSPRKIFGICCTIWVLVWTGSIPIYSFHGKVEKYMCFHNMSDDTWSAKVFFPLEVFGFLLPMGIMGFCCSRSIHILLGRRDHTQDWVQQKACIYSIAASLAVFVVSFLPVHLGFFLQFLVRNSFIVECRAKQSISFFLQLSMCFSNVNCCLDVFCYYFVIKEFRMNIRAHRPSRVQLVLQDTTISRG

On to `COc1ccc(C2c3ccc(O)cc3Oc3ncn(CC(C)C)c(=N)c32)cc1` (stereo not given), for which the IC50 (commonly the point on the concentration scale where inhibition reaches its midpoint) in experiment [1] is 2.27 µM (active).

Regarding `COc1ccc(CCN=C(N)NS(=O)(=O)c2cccs2)cc1`, the AC50 (as a rule, the midpoint of the concentration-response curve, whichever way the signal moves) with Escherichia coli was 112 µM (active).

On to `Cc1c(NC(=O)CCCCCN2C(=O)c3ccccc3C2=O)c(=O)n(-c2ccccc2)n1C`, for which the values for the IC50 (in [2]; in experiment [3]; on Bcl-2-related protein A1) were 1.23 µM (active), 0.709 µM (active) and > 20 µM (inactive), respectively.

With `O=C(NC(=S)NC1CCN(Cc2ccccc2)CC1)c1ccc(F)cc1`, the IC50 in experiment [1] is 4.67 µM (active).

Turning to `CN1CC(c2ccccc2)C2(SC(=S)N(Cc3ccco3)C2=O)C12C(=O)Nc1ccccc12` (stereo not given), the AC50 in experiment [4] is 4.4 µM (active); in experiment [5], 20.3 µM (active); in experiment [6], 18.4 µM (active); in experiment [7], 17.6 µM (active).

For `CC/C(=N\NC(=O)c1ccoc1C)c1ccc(C)o1`, the EC50 – broadly, the concentration at which the effect is half-maximal – in experiment [8] is > 67.5 µM (inactive).

With `CC1CCN(S(=O)(=O)c2ccc3c(c2)N(CC(=O)NCCCN2CCCCC2C)C(=O)CS3)CC1` (stereo not given), in experiment [9], the IC50 was 13 µM (active).

On to `c1ccc(Cc2cnc(N3CCN(Cc4csc5ccccc45)CC3)nc2)cc1`, for which the concentration at half-maximal activity (AC50) was 2.98 µM (active) in experiment [10], 65 µM (active) in experiment [11], 47.5 µM (active) in experiment [5] and 2.86 µM (active) in [7].

With `Cc1sc2ncnc(Sc3nnnn3-c3ccc(Cl)cc3)c2c1C`, the EC50 in [12] is 5.19 µM (active); in the experiment “cells [13]”, > 350 µM (not active); in [14], 4.61 µM (active); in the experiment “cells [15]”, > 350 µM (not active).

For `Cc1ccc(COC(=O)c2cc(S(=O)(=O)N3CCCCC3)ccc2N2CCOCC2)cc1`, the half-maximal activity concentration (AC50) in experiment [10] was 10.6 µM (active); in experiment [11] it was > 70 µM (inactive); in experiment [5] it was 68.1 µM (active); in [7], 19.8 µM (active).

For `C#CCOCCOCCOCCNc1nc(N2CCN(C(=O)[C@H](CCCCN)n3cc(CN)nn3)CC2)nc(N2CCN(C(=O)[C@H](CCCN=C(N)N)n3cc(C(N)[C@H](C)CC)nn3)CC2)n1` (stereo not given in full), the values for the IC50 (in experiment [2]; in [3]; on Bcl-2-related protein A1) were 12 µM (active), 7.94 µM (active) and > 20 µM (inactive), respectively.

As to `COc1ccccc1NC(=O)c1c(/N=C/c2ccccc2O)cnn1C`, the figures for the IC50 (in experiment [2]; in [3]; at Bcl-2-related protein A1) were 10.5 µM (active), 10.4 µM (active) and > 20 µM (inactive), respectively.
